# System: 843782-103-R-J1-PDC complex spheroid viability
# Experiment: Anticancer human tumor 843782-103-R-J1-PDC patient-derived lung adenocarcinoma cell line growth inhibition [RAS]
# Settings: for IC50: curve of first compound; for viability, T/C: stronger effect = lower value
# How it was run: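 Agents were tested in combination matrices in half-log decrements from a top concentration at or near clinical Cmax (10 microM if undetermined). Targets were multi-cell spheroids of tumour lines plus HUVEC and MSC stromal cells.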
# [1] = second compound 0.00316 µM, first compound 0.0316 µM
# [2] = second compound 0.00316 µM, first compound 0.1 µM
# [3] = second compound 0.00316 µM, first compound 0.316 µM
# [4] = second compound 0.00316 µM, first compound 1 µM
# [5] = second compound 0.00316 µM, first compound 3.16 µM
# [6] = second compound 0.00316 µM, first compound 10 µM
# [7] = second compound 0.01 µM, first compound 0.0316 µM
# [8] = second compound 0.01 µM, first compound 0.1 µM
# [9] = second compound 0.01 µM, first compound 0.316 µM
# [10] = second compound 0.01 µM, first compound 1 µM
# [11] = second compound 0.01 µM, first compound 3.16 µM
# [12] = second compound 0.01 µM, first compound 10 µM
# [13] = second compound 0.0316 µM, first compound 0.0316 µM
# [14] = second compound 0.0316 µM, first compound 0.1 µM
# [15] = second compound 0.0316 µM, first compound 0.316 µM
# [16] = second compound 0.0316 µM, first compound 1 µM
# [17] = second compound 0.0316 µM, first compound 3.16 µM
# [18] = second compound 0.0316 µM, first compound 10 µM
# [19] = second compound 0.1 µM, first compound 0.0316 µM
# [20] = second compound 0.1 µM, first compound 0.1 µM
# [21] = second compound 0.1 µM, first compound 0.316 µM
# [22] = second compound 0.1 µM, first compound 1 µM
# [23] = second compound 0.1 µM, first compound 3.16 µM
# [24] = second compound 0.1 µM, first compound 10 µM
# [25] = second compound 0.316 µM, first compound 0.0316 µM
# [26] = second compound 0.316 µM, first compound 0.1 µM
# [27] = second compound 0.316 µM, first compound 0.316 µM
# [28] = second compound 0.316 µM, first compound 1 µM
# [29] = second compound 0.316 µM, first compound 3.16 µM
# [30] = second compound 0.316 µM, first compound 10 µM
# [31] = second compound 1 µM, first compound 0.0316 µM
# [32] = second compound 1 µM, first compound 0.1 µM
# [33] = second compound 1 µM, first compound 0.316 µM
# [34] = second compound 1 µM, first compound 1 µM
# [35] = second compound 1 µM, first compound 3.16 µM
# [36] = second compound 1 µM, first compound 10 µM
# 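Note: viability read after seven days of compound exposure.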
smiles,measurement,setting,value
CC(=O)OC12COC1CC(O)C1(C)C(=O)C(O)C3=C(C)C(OC(=O)C(O)C(NC(=O)OC(C)(C)C)c4ccccc4)CC(O)(C(OC(=O)c4ccccc4)C21)C3(C)C (stereo not drawn) + C=CC(=O)N1CCN(c2nc(OCC3CCCN3C)nc3c(F)c(-c4nc(N)cc(C)c4C(F)(F)F)c(Cl)cc23)C(C)C1,IC50,second compound 0.00316 µM,< 31.6 nM
same,IC50,second compound 0.01 µM,< 31.6 nM
same,IC50,second compound 0.0316 µM,< 31.6 nM
same,IC50,second compound 0.1 µM,< 31.6 nM
same,IC50,second compound 0.316 µM,< 31.6 nM
same,IC50,second compound 1 µM,< 31.6 nM
same,"viability, T/C",[1],3.83%
same,"viability, T/C",[2],3.97%
same,"viability, T/C",[3],4.72%
same,"viability, T/C",[4],5.04%
same,"viability, T/C",[5],6.7%
same,"viability, T/C",[6],7.46%
same,"viability, T/C",[7],3.55%
same,"viability, T/C",[8],5.26%
same,"viability, T/C",[9],5.77%
same,"viability, T/C",[10],5.45%
same,"viability, T/C",[11],4.97%
same,"viability, T/C",[12],8.21%
same,"viability, T/C",[13],4.29%
same,"viability, T/C",[14],4.99%
same,"viability, T/C",[15],5.82%
same,"viability, T/C",[16],4.83%
same,"viability, T/C",[17],5.52%
same,"viability, T/C",[18],6.14%
same,"viability, T/C",[19],4.07%
same,"viability, T/C",[20],4.89%
same,"viability, T/C",[21],5.53%
same,"viability, T/C",[22],6.37%
same,"viability, T/C",[23],3.49%
same,"viability, T/C",[24],6.77%
same,"viability, T/C",[25],3.97%
same,"viability, T/C",[26],3.89%
same,"viability, T/C",[27],3.73%
same,"viability, T/C",[28],5.43%
same,"viability, T/C",[29],5.26%
same,"viability, T/C",[30],7.59%
same,"viability, T/C",[31],4.07%
same,"viability, T/C",[32],3.8%
same,"viability, T/C",[33],4.24%
same,"viability, T/C",[34],3.62%
same,"viability, T/C",[35],4.03%
same,"viability, T/C",[36],7.53%
CCc1c2c(nc3ccc(O)cc13)-c1cc3c(c(=O)n1C2)COC(=O)[C@]3(O)CC + C=CC(=O)N1CCN(c2nc(OCC3CCCN3C)nc3c(F)c(-c4nc(N)cc(C)c4C(F)(F)F)c(Cl)cc23)C(C)C1,IC50,second compound 0.00316 µM,1.67 nM
same,IC50,second compound 0.01 µM,1.52 nM
same,IC50,second compound 0.0316 µM,1.56 nM
same,IC50,second compound 0.1 µM,1.56 nM
same,IC50,second compound 0.316 µM,1.54 nM
same,IC50,second compound 1 µM,1.52 nM
same,"viability, T/C","second compound 0.00316 µM, first compound 0.000949 µM",80.4%
same,"viability, T/C","second compound 0.00316 µM, first compound 0.003 µM",18.2%
same,"viability, T/C","second compound 0.00316 µM, first compound 0.00949 µM",6.35%
same,"viability, T/C","second compound 0.00316 µM, first compound 0.03 µM",2.5%
same,"viability, T/C","second compound 0.00316 µM, first compound 0.0949 µM",1.18%
same,"viability, T/C","second compound 0.00316 µM, first compound 0.3 µM",0.74%
same,"viability, T/C","second compound 0.01 µM, first compound 0.000949 µM",72.8%
same,"viability, T/C","second compound 0.01 µM, first compound 0.003 µM",16.8%
same,"viability, T/C","second compound 0.01 µM, first compound 0.00949 µM",8.52%
same,"viability, T/C","second compound 0.01 µM, first compound 0.03 µM",3.04%
same,"viability, T/C","second compound 0.01 µM, first compound 0.0949 µM",0.93%
same,"viability, T/C","second compound 0.01 µM, first compound 0.3 µM",0.76%
same,"viability, T/C","second compound 0.0316 µM, first compound 0.000949 µM",72.6%
same,"viability, T/C","second compound 0.0316 µM, first compound 0.003 µM",19.5%
same,"viability, T/C","second compound 0.0316 µM, first compound 0.00949 µM",7.44%
same,"viability, T/C","second compound 0.0316 µM, first compound 0.03 µM",2.35%
same,"viability, T/C","second compound 0.0316 µM, first compound 0.0949 µM",1.24%
same,"viability, T/C","second compound 0.0316 µM, first compound 0.3 µM",0.8%
same,"viability, T/C","second compound 0.1 µM, first compound 0.000949 µM",73.6%
same,"viability, T/C","second compound 0.1 µM, first compound 0.003 µM",18.1%
same,"viability, T/C","second compound 0.1 µM, first compound 0.00949 µM",7.09%
same,"viability, T/C","second compound 0.1 µM, first compound 0.03 µM",1.96%
same,"viability, T/C","second compound 0.1 µM, first compound 0.0949 µM",1.46%
same,"viability, T/C","second compound 0.1 µM, first compound 0.3 µM",0.64%
same,"viability, T/C","second compound 0.316 µM, first compound 0.000949 µM",70.7%
same,"viability, T/C","second compound 0.316 µM, first compound 0.003 µM",21.1%
same,"viability, T/C","second compound 0.316 µM, first compound 0.00949 µM",7.83%
same,"viability, T/C","second compound 0.316 µM, first compound 0.03 µM",2.85%
same,"viability, T/C","second compound 0.316 µM, first compound 0.0949 µM",1.34%
same,"viability, T/C","second compound 0.316 µM, first compound 0.3 µM",0.99%
same,"viability, T/C","second compound 1 µM, first compound 0.000949 µM",67.7%
same,"viability, T/C","second compound 1 µM, first compound 0.003 µM",24.5%
same,"viability, T/C","second compound 1 µM, first compound 0.00949 µM",7.99%
same,"viability, T/C","second compound 1 µM, first compound 0.03 µM",3.23%
same,"viability, T/C","second compound 1 µM, first compound 0.0949 µM",1.57%
same,"viability, T/C","second compound 1 µM, first compound 0.3 µM",0.98%
NC1c2ccccc2OC12CCN(c1cnc3c(N4CCCc5ncccc54)n[nH]c3n1)CC2 (stereo not drawn) + C=CC(=O)N1CCN(c2nc(OCC3CCCN3C)nc3c(F)c(-c4nc(N)cc(C)c4C(F)(F)F)c(Cl)cc23)C(C)C1,IC50,second compound 0.00316 µM,49.3 nM
same,IC50,second compound 0.01 µM,< 31.6 nM
same,IC50,second compound 0.0316 µM,< 31.6 nM
same,IC50,second compound 0.1 µM,39.9 nM
same,IC50,second compound 0.316 µM,44.1 nM
same,IC50,second compound 1 µM,37.2 nM
same,"viability, T/C",[1],58.4%
same,"viability, T/C",[2],35.8%
same,"viability, T/C",[3],30.5%
same,"viability, T/C",[4],23.7%
same,"viability, T/C",[5],30.8%
same,"viability, T/C",[6],16.8%
same,"viability, T/C",[7],49.1%
same,"viability, T/C",[8],35.5%
same,"viability, T/C",[9],28.5%
same,"viability, T/C",[10],22.8%
same,"viability, T/C",[11],20.3%
same,"viability, T/C",[12],20.2%
same,"viability, T/C",[13],44.9%
same,"viability, T/C",[14],34.4%
same,"viability, T/C",[15],30.4%
same,"viability, T/C",[16],25.6%
same,"viability, T/C",[17],24.7%
same,"viability, T/C",[18],21.3%
same,"viability, T/C",[19],55%
same,"viability, T/C",[20],34%
same,"viability, T/C",[21],28.2%
same,"viability, T/C",[22],26.2%
same,"viability, T/C",[23],22.9%
same,"viability, T/C",[24],15%
same,"viability, T/C",[25],54.4%
same,"viability, T/C",[26],39.8%
same,"viability, T/C",[27],29.7%
same,"viability, T/C",[28],23.1%
same,"viability, T/C",[29],20.9%
same,"viability, T/C",[30],22.1%
same,"viability, T/C",[31],52.1%
same,"viability, T/C",[32],38.3%
same,"viability, T/C",[33],25.2%
same,"viability, T/C",[34],25.4%
same,"viability, T/C",[35],25.3%
same,"viability, T/C",[36],18%
Nc1ccn(C2OC(CO)C(O)C2(F)F)c(=O)n1 (stereo not drawn) + C=CC(=O)N1CCN(c2nc(OCC3CCCN3C)nc3c(F)c(-c4nc(N)cc(C)c4C(F)(F)F)c(Cl)cc23)C(C)C1,IC50,second compound 0.00316 µM,23.7 nM
same,IC50,second compound 0.01 µM,34.4 nM
same,IC50,second compound 0.0316 µM,25.4 nM
same,IC50,second compound 0.1 µM,21.7 nM
same,IC50,second compound 0.316 µM,23.1 nM
same,IC50,second compound 1 µM,20 nM
same,"viability, T/C","second compound 0.00316 µM, first compound 0.00316 µM",89.9%
same,"viability, T/C","second compound 0.00316 µM, first compound 0.01 µM",89.7%
same,"viability, T/C",[1],36.7%
same,"viability, T/C",[2],3.04%
same,"viability, T/C",[3],1.74%
same,"viability, T/C",[4],2.04%
same,"viability, T/C","second compound 0.01 µM, first compound 0.00316 µM",90.6%
same,"viability, T/C","second compound 0.01 µM, first compound 0.01 µM",87.7%
same,"viability, T/C",[7],53.7%
same,"viability, T/C",[8],3.4%
same,"viability, T/C",[9],1.89%
same,"viability, T/C",[10],1.3%
same,"viability, T/C","second compound 0.0316 µM, first compound 0.00316 µM",88.7%
same,"viability, T/C","second compound 0.0316 µM, first compound 0.01 µM",86.3%
same,"viability, T/C",[13],41.4%
same,"viability, T/C",[14],4.87%
same,"viability, T/C",[15],1.41%
same,"viability, T/C",[16],1.39%
same,"viability, T/C","second compound 0.1 µM, first compound 0.00316 µM",96.5%
same,"viability, T/C","second compound 0.1 µM, first compound 0.01 µM",82.5%
same,"viability, T/C",[19],34.6%
same,"viability, T/C",[20],2.56%
same,"viability, T/C",[21],1.84%
same,"viability, T/C",[22],1.83%
same,"viability, T/C","second compound 0.316 µM, first compound 0.00316 µM",89.9%
same,"viability, T/C","second compound 0.316 µM, first compound 0.01 µM",82.8%
same,"viability, T/C",[25],37.8%
same,"viability, T/C",[26],4.66%
same,"viability, T/C",[27],1.55%
same,"viability, T/C",[28],1.83%
same,"viability, T/C","second compound 1 µM, first compound 0.00316 µM",93%
same,"viability, T/C","second compound 1 µM, first compound 0.01 µM",80%
same,"viability, T/C",[31],30.3%
same,"viability, T/C",[32],4.7%
same,"viability, T/C",[33],1.55%
same,"viability, T/C",[34],1.67%
